Assays:
Fisher Bladder Carcinoma = test: Intratumour injection study: radioactivity remaining in tumor tissue; format: in vivo, Fisher 344 rat; settings: intratumor injection
Procedure: (§1) 1. These drugs were administrated by intratumor injection. (right frank)
(§2) Group A:H-5-FU 5 mg/kg+saline/0.3 ml (i.t.)
(§3) B:H-5-FU 5 mg/kg+HA 15 mg/kg/0.3 ml (s.c.)
(§4) 3H-FU without or with HA was injected as a single dose (0.3 ml) into the center of the tumor (on the right frank) with a 30 gause needle. At the same time, injection into normal skin (on the left frank) was carried out similarly.
(§5) The tumor and skin was then removed at different times (1 h,6 hr) for counting radioactivity of the remaining content in the tissue.

[1] = Intratumour injection study: radioactivity remaining in normal skin; format: in vivo, Fisher 344 rat; settings: injection into normal skin
Procedure: as §1
At the same time, injection into normal skin (left frank) was carried out similarly.
as §2, §3, §4, §5

[2] = in vivo

Row | SMILES | Radioactivity retention in tumor tissue (Fisher Bladder Carcinoma) | Radioactivity clearance from normal tissue (skin) [1] | Side effects [2]
1 | O=c1[nH]cc(F)c(=O)[nH]1 [Formulation 3H-5FU, 5-Fluoracil] | immediately disappeared | immediately disappeared | –
2 | O=C(O)Cc1ccccc1Nc1c(Cl)cccc1Cl [Oral diclofenac acid] | – | – | gastritis

— patent US5990096A (priority 1992, dated 1999)
